Measured values from patent US20250230138A1, “COMPOUNDS HAVING A T-STRUCTURE FORMED BY AT LEAST FOUR CYCLES FOR USE IN THE TREATMENT OF CANCER AND OTHER INDICATIONS” (TheRas, Inc., priority 2022, published 2025).
Like-named read-outs stand apart in the source and are kept apart here.

Key:
[1] = biological target: Cys242 in human PIK3CA (157-299) (Homo sapiens (Human), UniProt P42336); assay: Covalent modification assay using MALDI-TOF MS; type: biochemical; conditions: 4 h reaction time point
Outline: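 PIK3CA (157-299), 3.33 or 1 μM in 20 mM HEPES, 150 mM NaCl, 2 mM MgCl2, pH 7.3, was incubated with compound at room temperature in the dark for 15 min, 30 min, 2 h or 4 h. Linear MALDI-TOF read-out; % modification = adduct peak height over summed heights of all protein species.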

pAKT in BT474 cells = assay: Cell-based pAKT HTRF assay in BT474 cells; conditions: BT474 cells, 4 hr incubation, read-out: pAKT inhibition IC50 in BT474 cells
Outline: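 BT474 cells in DMEM/10% FBS were treated the day after seeding with a 9-point, 3-fold compound series from 3 μM (0.25% DMSO) for 4 hr. Lysates were mixed with d2 and Eu cryptate anti-pAKT antibodies and incubated 4-24 h at room temperature. HTRF was read with excitation at 320 nm and emission at 615 nm.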

[2] = 3.33 μM protein target, 1:7.5 protein to compound ratio (compounds 1-852)
[3] = Homo sapiens, BT-474, Compounds 10-999
[4] = 1 μM protein target, 1:5 protein to compound ratio (compounds 853-1279)

Sequence of Cys242 in human PIK3CA (157-299) (P42336 157-299): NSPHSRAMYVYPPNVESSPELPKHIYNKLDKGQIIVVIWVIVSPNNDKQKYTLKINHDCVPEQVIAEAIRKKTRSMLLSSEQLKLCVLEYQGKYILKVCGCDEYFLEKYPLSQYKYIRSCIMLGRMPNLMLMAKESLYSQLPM

Compound	IC50 (pAKT in BT474 cells; [3])	IC50 (pAKT in BT474 cells; Compounds 10-999)	IC50 (pAKT in BT474 cells; Compounds 1000-1279)	% of modification [1, 2]	% of modification [1, 4]
C=CC(=O)N1CCc2nc(-c3nc(-c4ccc5c(c4)CS(=N)(=O)C5)c4ccsc4c3-c3ccc(F)cc3OCCOC)sc2C1 (stereo not drawn) [Compound 151, 1-[2-[7-[4-fluoro-2-(2-methoxyethoxy)phenyl]-4-(2-imino-2-oxo-1,3-dihydro-2-benzothiophen-5-yl)thieno[3,2-c]pyridin-6-yl]-6,7-dihydro-4H-thiazolo[5,4-c]pyridin-5-yl]prop-2-en-1-one]	< 100 nM	–	–	A (percent of modification of PIK3CA protein ≥75%)	–
C=CC(=O)N1CCn2nc(-c3nc(-c4ccc(=O)n(C)c4)c4ccsc4c3-c3ccc(F)cc3OC(C)C)cc2C1 [Compound 201]	–	< 100 nM	–	A (percent of modification of PIK3CA protein ≥75%)	–
C=CC(=O)N1CCc2ccc(-c3nc(-c4cnc5c(c4)CNC(=O)C5)c4ccsc4c3-c3c(F)cc(F)cc3OCCOC)cc2C1 [Compound 482]	–	< 100 nM	–	A (percent of modification of PIK3CA protein ≥75%)	–
C=CC(=O)N1CC(n2cc(-c3nc(C4=CCN(S(C)(=O)=O)CC4)c4ccsc4c3-c3ccc(F)cc3OC)cn2)C1 [Compound 299]	–	100 to 1000 nM	–	A (percent of modification of PIK3CA protein ≥75%)	–
C=CC(=O)N1CCc2ncc(-c3nc(-c4ccc5c(c4)CCN(C)C5)c4ccsc4c3-c3c(F)cc(F)cc3OC(C)C)cc2C1 [Compound 399]	–	< 100 nM	–	A (percent of modification of PIK3CA protein ≥75%)	–
C=CC(=O)N1CCc2ncc(-c3nc(-c4ccn(C)c(=O)c4)c4ccsc4c3-c3c(F)cc(F)cc3OC(C)C)cc2C1 [Compound 336]	–	< 100 nM	–	A (percent of modification of PIK3CA protein ≥75%)	–
C=C(F)C(=O)N1CCn2nc(-c3nc(-c4ccc5c(c4)CCNC5=O)c4ccsc4c3-c3ccc(F)cc3OC(C)C)nc2C1 [Compound 256]	–	100 to 1000 nM	–	A (percent of modification of PIK3CA protein ≥75%)	–
C=CC(=O)N1CCn2nc(-c3nc(-c4ccc5c(c4)CCN(C(C)C)C5)c4ccsc4c3-c3ccc(F)cc3F)cc2C1 [Compound 250]	–	< 100 nM	–	A (percent of modification of PIK3CA protein ≥75%)	–
C=CC(=O)N1CCn2ncc(-c3nc(-c4ccc5c(c4)CCNC5)c4ccsc4c3-c3ccc(F)cc3OCCOC)c2C1 [Compound 77]	–	> 3000 nM	–	D (percent of modification <25%)	–
C=CC(=O)N1CC(n2cc(-c3nc(N4CC5(CCNCC5)C4)c4ccsc4c3-c3ccc(F)cc3OCCOC)cn2)C1 [Compound 138]	–	100 to 1000 nM	–	A (percent of modification of PIK3CA protein ≥75%)	–
C=CC(=O)N1CCn2nc(-c3nc(-c4ccc5c(c4)NC(=O)CN(C)C5)c4ccsc4c3-c3c(F)cc(F)cc3OCCOC)cc2[C@H]1C [Compound 1132, 8-((S)-6-((R)-5-acryloyl-4-methyl-4,5,6,7-tetrahydropyrazolo[1,5-a]pyrazin-2-yl)-7-(2,4-difluoro-6-(2-methoxyethoxy)phenyl)thieno[3,2-c]pyridin-4-yl)-4-methyl-1,3,4,5-tetrahydro-2H-benzo[e][1,4]diazepin-2-one]	–	–	< 100 nM	–	A (percent of modification of PIK3CA protein ≥75%)
C=CC(=O)N1CCC(c2cc(-c3nc(-c4ccc5c(c4)CCNC5)c4ccsc4c3-c3ccc(F)cc3OCCOC)c[nH]c2=O)C1 (stereo not drawn) [Compound 70, 5-[7-[4-fluoro-2-(2-methoxyethoxy)phenyl]-4-(1,2,3,4-tetrahydroisoquinolin-6-yl)thieno[3,2-c]pyridin-6-yl]-3-(1-prop-2-enoylpyrrolidin-3-yl)-1H-pyridin-2-one]	100 to 1000 nM	–	–	A (percent of modification of PIK3CA protein ≥75%)	–
C=CC(=O)N1CCC(n2cc(-c3nc(-c4ccc5c(c4)CS(=O)(=O)C5)c4ccsc4c3-c3ccc(F)cc3OCCOC)cn2)CC1 [Compound 61]	–	< 100 nM	–	A (percent of modification of PIK3CA protein ≥75%)	–
C=CC(=O)N1CCc2nc(-c3nc(-c4ccc5c(c4)CCN(C)C5)c4ccsc4c3-c3c(F)cc(F)cc3OCCOC)sc2C1 [Compound 369]	–	< 100 nM	–	A (percent of modification of PIK3CA protein ≥75%)	–
C=CC(=O)N1CCn2nc(-c3nc(-c4cnn(C)c4)c4ccsc4c3-c3ccc(F)cc3OC(C)C)c(OC)c2C1 [Compound 313]	–	< 100 nM	–	A (percent of modification of PIK3CA protein ≥75%)	–

Second part, led by results:

IC50 (pAKT in BT474 cells; [3])	IC50 (pAKT in BT474 cells; Compounds 10-999)	IC50 (pAKT in BT474 cells; Compounds 1000-1279)	Compound	% of modification [1, 2]	% of modification [1, 4]
–	–	< 100 nM	C=CC(=O)N1CCn2nc(-c3nc(-c4ccc5c(c4)CN(C)CC5)c4c(c3-c3c(F)cc(F)cc3OCCOC)CCC4)cc2C1C (stereo not drawn) [Compound 1244]	–	A (percent of modification of PIK3CA protein ≥75%)
–	–	< 100 nM	C=CC(=O)N1CCc2ccc(-c3nc(-c4ccc5c(c4)CNC(=O)C54CC4)c4ccsc4c3-c3c(F)cc(F)cc3OCCOC)cc2C1 [Compound 1191]	–	A (percent of modification of PIK3CA protein ≥75%)
–	< 100 nM	–	C=CC(=O)N1Cc2cc(-c3nc(-c4nc(C)no4)c4ccsc4c3-c3c(F)cc(F)cc3OCCOC)nn2C[C@H]1C [Compound 822]	A (percent of modification of PIK3CA protein ≥75%)	–
–	< 100 nM	–	C=CC(=O)N1Cc2cc(-c3nc(-c4ccc5c(c4)CCNC5=O)c4ccsc4c3-c3c(F)cc(F)cc3OCCO)nn2CC1C (stereo not drawn) [Compound 907]	–	A (percent of modification of PIK3CA protein ≥75%)
< 100 nM	–	–	C=CC(=O)N1CCn2nc(-c3nc(-c4ccc5c(cnn5C)c4)c4ccsc4c3-c3c(F)cc(F)cc3OCCO)cc2[C@H]1C [Compound 908, 1-((R)-2-((S)-7-(2,4-difluoro-6-(2-hydroxyethoxy)phenyl)-4-(1-methyl-1H-indazol-5-yl)thieno[3,2-c]pyridin-6-yl)-4-methyl-6,7-dihydropyrazolo[1,5-a]pyrazin-5(4H)-yl)prop-2-en-1-one]	–	A (percent of modification of PIK3CA protein ≥75%)
–	< 100 nM	–	C=CC(=O)N1CCn2nc(-c3nc(-c4cnc5c(c4)CN(C)C5=O)c4ccsc4c3-c3c(F)cc(F)cc3OCCOC)cc2C1C (stereo not drawn) [Compound 553]	A (percent of modification of PIK3CA protein ≥75%)	–
–	100 to 1000 nM	–	C=CC(=O)N1Cc2cc(-c3nc(-c4cnn(C)c4)c4ccsc4c3-c3c(F)cc(F)cc3OCCO)nn2[C@@H](C)C1 [Compound 566]	D (percent of modification <25%)	–
–	< 100 nM	–	C=CC(=O)N1CCn2nc(-c3nc(-c4cnn(C)c4)c4ccsc4c3-c3c(F)cc(F)cc3OC[C@@H](C)O)cc2[C@H]1C [Compound 753]	A (percent of modification of PIK3CA protein ≥75%)	–
–	–	< 100 nM	C=CC(=O)N1CCn2nc(-c3nc(-c4cnc5c(c4)CN(CCCF)CC5)c4ccsc4c3-c3c(F)cc(F)cc3OCCOC)cc2C1C (stereo not drawn) [Compound 1158]	–	A (percent of modification of PIK3CA protein ≥75%)
–	< 100 nM	–	C=CC(=O)N1CCn2nc(-c3nc(-c4ccnc(N(C)C)c4)c4ccsc4c3-c3c(F)cc(F)cc3OCCO)cc2C1C (stereo not drawn) [Compound 960]	–	A (percent of modification of PIK3CA protein ≥75%)
–	–	< 100 nM	C=CC(=O)N1CCn2nc(-c3nc(-c4ccc(OC5CN(C)C5)cc4)c4ccsc4c3-c3c(F)cc(F)cc3OCCOC)cc2C1C (stereo not drawn) [Compound 1094]	–	A (percent of modification of PIK3CA protein ≥75%)
–	< 100 nM	–	C=CC(=O)N1CCc2nc(-c3nc(-c4ccc5nn(C)cc5c4)c4ccsc4c3-c3c(F)cc(F)cc3OCCOC)sc2C1 [Compound 947]	–	A (percent of modification of PIK3CA protein ≥75%)
–	< 100 nM	–	C=CC(=O)N1Cc2cc(-c3nc(-c4cnn(CC(C)(C)O)c4)c4ccsc4c3-c3c(F)cc(F)cc3OCCOC)nn2C[C@H]1C [Compound 514]	A (percent of modification of PIK3CA protein ≥75%)	–
–	< 100 nM	–	C=CC(=O)N1CCc2ncc(-c3nc(-c4ccc5c(c4)CNC(=O)C5)c4ccsc4c3-c3c(F)cc(F)cc3OCCOC)cc2C1 [Compound 963]	–	A (percent of modification of PIK3CA protein ≥75%)
–	< 100 nM	–	C=CC(=O)N1C[C@H](C)n2nc(-c3nc(-c4cnn(C)c4)c4ccsc4c3-c3c(F)cc(F)cc3OCCOC)cc2[C@H]1C [Compound 583]	A (percent of modification of PIK3CA protein ≥75%)	–
–	< 100 nM	–	C=CC(=O)N1Cc2cc(-c3nc(-c4cnc5oc(C)nc5c4)c4ccsc4c3-c3c(F)cc(F)cc3OCCOC)nn2C[C@H]1C [Compound 825]	A (percent of modification of PIK3CA protein ≥75%)	–
–	–	< 100 nM	C=CC(=O)N1CCn2nc(-c3nc(-c4ccc(C(=O)N5CC(F)C(F)C5)cc4)c4ccsc4c3-c3c(F)cc(F)cc3OCCOC)cc2C1C (stereo not drawn) [Compound 1189]	–	A (percent of modification of PIK3CA protein ≥75%)
–	–	100 to 1000 nM	C=CC(=O)N1CCc2ccc(-c3nc(-c4cn(C)cn4)c4ccsc4c3-c3c(F)cc(F)cc3OCCO)cc2C1 (single isomer, unassigned) [Compound 1001]	–	D (percent of modification <25%)
